Patent publication US20150080466A1, “DIPHENYL UREA DERIVATIVES AS FORMYL PEPTIDE RECEPTOR MODULATORS” (Allergan, Inc., priority 2013, published 2015)
pEC50: −log10 of the molar value.

Biological target: T1, FPR2 (Homo sapiens, UniProt P25090)
T1 construct: expressed in transfected cells
T1 sequence (P25090 1-351): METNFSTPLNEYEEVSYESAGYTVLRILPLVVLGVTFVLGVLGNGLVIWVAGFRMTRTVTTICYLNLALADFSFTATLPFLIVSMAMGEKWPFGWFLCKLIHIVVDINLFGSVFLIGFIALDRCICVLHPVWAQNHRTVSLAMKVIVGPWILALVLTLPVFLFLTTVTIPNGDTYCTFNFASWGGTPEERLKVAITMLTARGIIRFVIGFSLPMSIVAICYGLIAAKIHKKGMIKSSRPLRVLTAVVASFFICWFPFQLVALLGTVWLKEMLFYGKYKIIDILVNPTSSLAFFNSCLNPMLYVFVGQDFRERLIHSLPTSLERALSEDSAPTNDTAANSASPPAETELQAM
Experiment: Compound-induced calcium activity on FLIPR Tetra in CHO-Gα16 cells stably expressing FPRL1
Type: cell-based
Details: for FPR2 Ga16-CHO (Rel. eff.): relative efficacy; for pEC50: tested at 0.61 to 10,000 nM, read-out: FPR2 Ga16-CHO EC50
Procedure: CHO-Gα16 cells stably expressing FPRL1 were cultured in (F12, 10% FBS, 1% PSA, 400 μg/ml geneticin and 50 μg/ml hygromycin) and HEK-Gqi5 cells stable expressing FPR1 were cultured in (DMEM high glucose, 10% FBS, 1% PSA, 400 μg/ml geneticin and 50 μg/ml hygromycin). In general, the day before the experiment, 18,000 cells/well were plated in a 384-well clear bottom poly-d-lysine coated plate. The following day the screening compound-induced calcium activity was assayed on the FLIPR^Tetra. The drug plates were prepared in 384-well microplates using the EP3 and the MultiPROBE robotic liquid handling systems. Compounds were tested at concentrations ranging from 0.61 to 10,000 nM. Results are expressed as EC50 (nM) and efficacy values.

SMILES	FPR2 Ga16-CHO (Rel. eff.)	pEC50
COC(=O)CCCNC(=O)CCc1ccccc1NC(=O)Nc1ccc(Br)cc1 [Compound 2, Methyl 4-{[3-(2-{[(4-Bromophenyl)carbamoyl]amino}phenyl)propanoyl]amino}butanoate]	(0.96)	6.04
O=C(O)CCNC(=O)CCc1ccccc1NC(=O)Nc1ccc(Br)cc1 [Compound 5, 3-{[3-(2-{[(4-Bromophenyl)carbamoyl]amino}phenyl)propanoyl]amino}propanoic acid]	(1.00)	6.20
O=C(O)CCc1ccccc1NC(=O)Nc1ccc(Br)cc1 [Compound 1, 3-(2-{[(4-Bromophenyl)carbamoyl]amino}phenyl)propanoic Acid]	(1.00)	5.91
O=C(O)CNC(=O)CCc1ccccc1NC(=O)Nc1ccc(Br)cc1 [Compound 7, {[3-(2-{[(4-Bromophenyl)carbamoyl]amino}phenyl)propanoyl]amino}acetic acid]	(0.76)	6.39
O=C(O)CCCNC(=O)CCc1ccccc1NC(=O)Nc1ccc(Br)cc1 [Compound 4, 4-{[3-(2-{[(4-Bromophenyl)carbamoyl]amino}phenyl)propanoyl]amino}butanoic Acid]	(0.99)	5.69

These reach a higher pEC50. Values come first.

FPR2 Ga16-CHO (Rel. eff.)	pEC50	SMILES
(1.00)	6.51	COC(=O)CCNC(=O)CCc1ccccc1NC(=O)Nc1ccc(Br)cc1 [Compound 3, Methyl3-{[3-(2-{[(4-bromophenyl)carbamoyl]amino}phenyl)propanoyl]amino}propanoate]
(0.80)	6.74	COC(=O)CNC(=O)CCc1ccccc1NC(=O)Nc1ccc(Br)cc1 [Compound 6, Methyl {[3-(2-{[(4-bromophenyl)carbamoyl]amino}phenyl)propanoyl]amino}acetate]
